Measured values from patent publication US20260327211A1, “MODULATORS OF A POTASSIUM CHANNEL AND OF TRPV1 CHANNEL AND USES THEREOF” (Bsense Bio Therapeutics Ltd., priority 2023, published 2026).
pIC50: −log10 of the molar value. Several values for one entry are separate records, joined by “and”; a condition that tells them apart may be missing. Equal entries are not always repeated. Where two headings read alike, the source gives them in different places.

Assays:
[1] = system: Spared Nerve Injury (SNI) rats; assay: Spared Nerve Injury (SNI) model, von Frey; assay type: in vivo, rat; settings: rat, in vivo
Description: All animal experiments were carried out according to the Guide for the Care and Use of Laboratory Animals (2011 edition) and approved by the Israel National Institutional Animal Care and Use Committee (IACUC). Young adult male SD rats (Envigo RMS, Israel), were used for in vivo efficacy: Spared Nerve Injury (SNI), Distal Tibial Injury (DTI) and Post-operative Pain (POP), 200-220 grams, Chronic Post-Ischemia Pain (CPIP) 275-325 grams, Monosodium iodoacetate-induced osteoarthritis (MIA-OA) 180-220 grams; for in vivo safety: 200-250 grams at study initiation. […] The health status of the animals used in this study was examined upon their arrival. Only animals in good health were acclimatized to laboratory conditions and were used in the studies. All studies were performed following at least five days of animal acclimation. During acclimation and throughout the entire study duration, animals were housed within a limited-access rodent facility and kept in groups with a maximum of 2-3 rats per polypropylene cage. The cages were fitted with solid bottoms and filled with sterile wood shavings as bedding material. Animals were provided ad libitum with a commercial, sterile rodent diet and had free access to drinking water that was supplied to each cage via polyethylene bottles with stainless steel sipper tubes. A feed lot analysis of the diet batch used in the study was included in the archives with the study data. Water was monitored periodically. Plastic cylinders for playing and hiding and wooden balls or sticks were added to the cages for environmental enrichment.
SNI: The SNI procedure consisted of ligating and dissecting the tibial and common peroneal nerves, thus sparing the sural nerve. Prior to surgery, a dose of 0.03 mg/kg buprenorphine (Temgesic®) was administered to animals as a prophylaxis to alleviate the operative and postoperative pain unrelated to neuropathy. Next, animals were anesthetized with a combination of medetomidine/ketamine sodium IP. While under anesthesia a medio caudal incision of 4-5 mm parallel to the left femur was cut on shaved and disinfected skin. The sciatic nerve was exposed from underneath the muscle layer and isolated gently from the surrounding connective tissue, using curved and blunt forceps. The tibial and common peroneal nerves were first tightly ligated with double knot of 6-0 silk suture, proximally and immediately distal to the sciatic bifurcation. Thereafter, the nerves which run as a pair as physically attached to each other were cut at sites close to the ligatures, thereby removing a length of approximately 0.5 mm of the nerves, necessary to avoid the formation of any re-connection to the nerves. This procedure led to complete denervation of areas of tibial and peroneal innervation in the plantar paw, while neuropathy was developed upon the sural territories. Special care was taken not to manipulate the sural nerve, which thus was left intact. The muscle layers and skin were sutured, and animals were allowed to recover. 0.03 mg/kg buprenorphine SC was administered on postoperative days 1-2, every 12 hours, starting from the evening of Day 0. Rehydration with 4 ml of sterile saline IP was provided directly after the surgery, continuing twice a day for 7 days. The sural nerve innervates the lateral longitudinal third of the plantar paw and therefore, mechanical sensitivity was assessed in this area.
The selection of animals was performed on day 13 post-operation before animals were placed in their experimental groups. Animals with a pain threshold of <4 grams for an operated leg following Von Frey testing were included in the study. To form homogenous treatment groups, all the selected animals were grouped using a random sampling method on study day 13, to form groups with similar pain threshold mean. For blinding purposes, the researcher who dosed the animals with test items was different than the researcher who conducted the VF tests. […]

CHO-K1 cells = assay: In vitro micronucleus; assay type: cell-based
Description: (§1) The micronucleus assay was performed according to the regulatory guidelines. In brief, CHO-K1 cells were plated at 10000 cells/well in 3 plates and incubated In CHO-K1 growth medium (containing F12K, 10% FBS and 1% PS) overnight.
(§2) As a control for the S9 treatment, plate No. 1, cells were treated with cyclophosphamide as a positive control, for 3 hours. For plate No. 2, without S9 treatment, cells were treated with mitomycin C as a positive control, compounds for 3 hours, and for plate No. 3, without S9 treatment, cells were treated with bleomycin sulfate as a positive control continuously for 24 hours.
(§3) On the following day, 6 μg/mL of cytochalasin B were added to each well and plates were further incubated overnight. In the day after medium was replaced with a combined 10 μg/mL Hoechst dye solution and 0.5 μM calcein-AM in 100 μL warm DPBS for 30 minutes and the plates were scanned using CQ1 high-content analysis system.

In vitro micronucleus = assay type: cell-based; settings: hamster, cho-k1 cells
Description: as §1, §2, §3

[2] = Log D, 1-octanol/buffer shake flask; assay type: physicochemical; settings: 1-octanol/phosphate buffer, pH 7.4; read-out: LogD
Procedure, shortened: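 Compound from a 10 mM DMSO stock was partitioned between mutually saturated 1-octanol and 0.1 M phosphate buffer by shaking for 1 h at room temperature, then centrifuged. Each phase was diluted and quantified by LC/MS/MS. Log D came from the ratio of dilution- and internal-standard-corrected peak areas.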

[3] = Bidirectional permeability in Caco-2 cells; assay type: in vitro ADME, human; settings: human, Caco-2, pH 7.4, 2.00 μM
Description: Cell culture: Caco-2 cells (ATCC) were seeded onto polycarbonate (PC) membranes in 96-well insert plates. The cells were cultured in media for 21-28 days prior to performing the transport assays.
Validation of monolayer integrity: Once the Caco-2 cells formed a confluent monolayer, their integrity was evaluated using a Lucifer yellow rejection assay. The monolayer integrity was further evaluated by measuring, in duplicate wells, the unidirectional (A→B) permeability of nadolol (a low permeability marker) and metoprolol (a high permeability marker), as well as bidirectional permeability of digoxin (a P-glycoprotein substrate marker).
Assay: The compounds were assayed under bidirectional transport conditions (A→B and B→A) at a concentration of 2.00 μM (with DMSO≤1.0%), using a transport buffer composed of HBSS containing 10.0 mM HEPES, pH 7.40±0.05. The incubation was carried out at 37° C., with 5.0% CO2 and relatively saturated humidity for 2 hours.
The dosing solution was spiked and mixed with the transport buffer and a Stop Solution (containing an internal standard (IS)) to create a T0 sample.
Sample analysis: Following the incubation, all of the samples were analyzed using LC-MS/MS. The concentrations of the test compounds were expressed as peak area ratios of the analytes versus the IS.

hTRPV1 = target: T1, hTRPV1 (Homo sapiens, UniProt Q8NER1); assay: hTRPV1 dual activity electrophysiology, CHO cells co-expressing hKv7.2/3 and hTRPV1; assay type: cell-based; settings: Dual hTRPV1 / Dual Expressing CHO, CAP IC50, Kv7.2/3 co-expressed and activated, capsaicin
T1 construct: CDS of NM_080704.4, inserted into the multiple cloning site of pcDNA3.1(+); host or cells: CHO/hKv7.2/3
T1 sequence (Q8NER1 whole entry): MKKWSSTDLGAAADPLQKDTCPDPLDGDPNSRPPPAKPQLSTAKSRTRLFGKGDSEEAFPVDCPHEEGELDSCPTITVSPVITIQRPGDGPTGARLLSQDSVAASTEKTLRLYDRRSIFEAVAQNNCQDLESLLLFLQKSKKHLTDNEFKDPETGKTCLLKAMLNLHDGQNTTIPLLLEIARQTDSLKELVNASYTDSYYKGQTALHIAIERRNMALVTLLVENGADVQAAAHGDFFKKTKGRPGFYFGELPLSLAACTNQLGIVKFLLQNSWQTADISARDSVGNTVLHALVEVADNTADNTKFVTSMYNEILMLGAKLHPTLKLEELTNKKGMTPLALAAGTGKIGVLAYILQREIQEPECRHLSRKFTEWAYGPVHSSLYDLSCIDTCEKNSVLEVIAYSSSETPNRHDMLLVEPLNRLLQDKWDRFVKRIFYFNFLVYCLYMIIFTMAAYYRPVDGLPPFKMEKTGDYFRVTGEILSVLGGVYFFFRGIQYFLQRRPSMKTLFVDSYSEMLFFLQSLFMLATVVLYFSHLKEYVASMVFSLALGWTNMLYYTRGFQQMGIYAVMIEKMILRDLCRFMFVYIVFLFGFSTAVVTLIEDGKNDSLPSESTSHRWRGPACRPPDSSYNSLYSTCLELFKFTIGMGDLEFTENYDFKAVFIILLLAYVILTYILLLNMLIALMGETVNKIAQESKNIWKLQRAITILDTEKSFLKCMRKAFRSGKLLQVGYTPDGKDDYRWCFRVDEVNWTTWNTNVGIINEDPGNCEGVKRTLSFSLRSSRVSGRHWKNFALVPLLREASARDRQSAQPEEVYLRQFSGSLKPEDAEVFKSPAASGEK
Description: Cell culture and DNA transfection: CHO/hKv7.2/3 cells were transfected with hTRPV1 DNA constructs (CDS of NM_080704.4, inserted into the multiple cloning site of pcDNA3.1(+) between the Hind III and BamH I restriction site, Genscript). For CHO transfection, 1×10^6 cells were suspended in a reaction mix (Amaxa™ 4D-Nucleofector™-LONZA) containing 5 μg of hTRPV1 DNA and 0.5 μg of GFP DNA (for cells selection) in a cuvette.
The cells were transformed (Amaxa, DT-133 program for CHO transfection with p-3 Kit) and recovered for 10 minutes at RT in the hood. Then cells were re-suspended in a 10 mL antibiotic (Ab)-free medium suspension and were plated on Gelatin or PLL-coated cover glass in different cell densities. On the next morning, the medium was changed to full medium containing the CHO/hKv7.2/3 cell line selection antibiotics.
Extracellular (Bath) solution: The solution was composed of (in mM): NaCl, 140; KCl, 4; CaCl2, 1.8; MgCl2, 1.2; Glucose, 11; HEPES, 5.5. pH was adjusted to 7.3 with NaOH. Osmolarity was adjusted to 310 mOsm with Sucrose.
Intracellular (Pipette) solution: Pipettes were pulled from borosilicate glass (Warner Instrument Corp, USA) with a resistance of 3-7 MΩ and were filled with internal solution composed of (in mM): KCl, 130; MgCl2, 1; K ATP, 5; EGTA, 5; HEPES, 10. pH was adjusted to 7.3 with KOH. Osmolarity was adjusted to 290 mOsm with Sucrose.
A programmable valve-linked pressurized perfusion system was used for local application of compounds nearby the cell recorded in a consistent flow rate of 2-3 mL/minute. Series resistance was corrected and data were sampled at 5 kHz and low pass filtered at 2.4 kHz using MultiClamp 700B amplifier with pCLAMP11 software (Molecular Devices, USA).
At least 48 hours following cell transfection and plating, cells were recorded to assess the TRPV1 dual activity. Membrane potential was held at −90 mV. To measure the inhibitory effects of the tested compounds on hTRPV1 dual activity the following protocol was performed:
Cells were perfused with vehicle-only containing bath solution. After 30 seconds, a single −40 mV 1.5 second step was applied for Kv7.2/3 activation and 30 seconds later capsaicin (1 μM) was applied for 6 seconds to activate the TRPV1.
Cells perfusion was changed to a compound-containing bath solution, and after 2 minutes and 30 seconds of compound application, a single −40 mV 1.5 second step was applied for Kv7.2/3 activation and 30 seconds later capsaicin (1 μM) was applied for 6 seconds to activate the TRPV1.
Cells perfusion was thereafter changed back to vehicle only-containing bath solution. After 30 seconds, a single −40 mV 1.5 step was applied for Kv7.2/3 activation and 30 seconds later capsaicin (1 μM) was applied for 6 seconds to activate the TRPV1 followed by a capsaicin wash out.
The drug current response, when capsaicin was injected following 3 minutes of pre-incubation with the test compound, was divided by the averaged control currents, induced without compound, before compound incubation and following its washout, to evaluate the drug/control response.

[4] = Human liver microsome metabolic stability; assay type: in vitro ADME; settings: for half-life at 1 µM: human, liver microsomes, human liver microsomes, read-out: HLM T1/2
Procedure, shortened: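 Compound at 1 μM was incubated at 37 °C with pooled liver microsomes at 0.5 mg/mL and an NADPH regenerating system (about 1.0 mM). Samples were taken from 0 to 60 min, quenched in cold acetonitrile and quantified by LC-MS/MS against an internal standard. CLint was scaled with species liver weights (rat 40 g/kg, human 20 g/kg).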

[5] = Metabolite identification (Met-ID), human hepatocytes; assay type: in vitro ADME; settings: human hepatocytes
Description: Cell culture and incubation: Cryopreserved hepatocyte cells, from human and rat sources, were purchased from commercial sources or in-house production, and were cultured in Williams' Medium E supplemented with glutamine and HEPES, in a humidified 5% CO2 incubator at 37° C., to a cell density of […]. Then, solutions of test compounds at a concentration of 10 μM, or 7-Ethoxycoumarin, as a positive control, at a concentration of 30 μM, in Eagle's Minimum Essential Medium, Catalog No. 30-2003 (ATCC) supplemented with 20% fetal bovine serum, were introduced and the mixture was incubated for 120 minutes, or other specified time points.
The samples were analyzed for metabolites using an LC-MS method developed on […] and PDA systems. Comparative analyses of mass spectra and ion fragmentation between the parent compound and its metabolites were carried out, and metabolic profiling was determined using the mass spectrometric and/or PDA (UV) response. Hypothetical structures of metabolites and their metabolic pathways were proposed.

MIA-OA rats = assay: Dynamic weight bearing in MIA-OA rats; assay type: in vivo, rat; settings: 100 mg/kg (naproxen 30 mg/kg), 6 hours post-dose
Description: Monosodium iodoacetate-induced osteoarthritis (MIA-OA): The animals were anaesthetized using an Isoflurane+O2 mixture. Then 50 μl of MIA at a concentration of 60 mg/mL was injected into the right knee joint using a 30 G needle. On study days 13 and 14 following MIA injection, the animals' dynamic weight bearing and response to von Frey filaments were measured.
Dynamic Weight Bearing (DWB): DWB study was performed using the DWB2 apparatus (Bioseb, Paris, France). The rats were placed in a transparent cage containing a matrix comprising around 2000 high-precision force sensors embedded in its floor where they were allowed to move freely. The force sensors measured the weight distribution on each of the four paws of the animal in grams. The animal was filmed from above using a high-definition camera, and the video feed was analyzed in real-time during the test using tracking software, allowing a precise analysis of the animal's posture and hind paws identification. Out of 5 minutes of animal behavior recording, a segment of 2 minutes was analyzed. Once the analysis was completed, the software provided the weight distribution of each hind paw as the main readout and the ratio between the injured and intact hind paws was then calculated.

Compound: CC(C)C[C@H](CN)CC(=O)O [Pregabalin, reference compound]
- Reversal of PWT [1]: 61% and 50%

Compound: CO[C@@]12[C@H](COC(N)=O)C3=C(C(=O)C(C)=C(N)C3=O)N1C[C@@H]1N[C@@H]12 [Mitomycin C, reference compound]
- Micronucleus response Absolute MEC (CHO-K1 cells; Plate 2 without S9, 3 hours): >16 µM
- CC50 at 3 h (In vitro micronucleus; Plate 2 without S9, 3 hours, read-out: Cytotoxicity (%) Absolute EC50): > 16 µM

Compound: O=P1(N(CCCl)CCCl)NCCCO1 (centres unmarked) [Cyclophosphamide, reference compound]
- Micronucleus response Absolute MEC (CHO-K1 cells; hamster): >400 µM
- CC50 at 3 h (In vitro micronucleus): 41.4 µM

Compound: O=C(Cc1cc(-n2cc(Cl)c3cc(Cl)cc(Cl)c32)ncn1)N[C@@H]1COC[C@H]1O [Compound 840]
- logD [2]: 3.63
- efflux ratio at 2 h, 2 µM [3]: 5.4
- pIC50 (hTRPV1): 6.32
- HLM and/or Rat PK clearance rates compared to compound 661 [4]: improved HLM and/or Rat PK clearance rates compared to compound 661
- half-life at 1 µM [4]: 52 min
- Human Hepatocytes MetID (glutathione conjugation) [5]: did not indicate the presence of glutathione conjugation and None

Compound: O=C(Cc1cc(-n2cc(Cl)c3cc(Cl)cc(Cl)c32)cnn1)N[C@@H]1COC[C@H]1O [Compound 830]
- logD [2]: 3.2
- efflux ratio at 2 h, 2 µM [3]: 84
- HLM and/or Rat PK clearance rates compared to compound 661 [4]: improved HLM and/or Rat PK clearance rates compared to compound 661
- half-life at 1 µM [4]: 58.1 min
- Human Hepatocytes MetID (glutathione conjugation) [5]: did not indicate the presence of glutathione conjugation

Compound: COc1ccc2cc([C@H](C)C(=O)O)ccc2c1 [naproxen, reference compound]
- Reversal of weight bearing changes (MIA-OA rats): comparable reversal of weight bearing changes
